Assays:
[1] = molecular target: T1, human 25-hydroxylase (Homo sapiens, UniProt O95992); test: 25-hydroxylase activity in 293 cells transfected with the human cDNA; format: cell-based; conditions: treatment of transfected 293 cells
T1 construct: expressed in transfected cells; host or cells: human embryonic kidney 293 cells
T1 sequence (O95992 1-272): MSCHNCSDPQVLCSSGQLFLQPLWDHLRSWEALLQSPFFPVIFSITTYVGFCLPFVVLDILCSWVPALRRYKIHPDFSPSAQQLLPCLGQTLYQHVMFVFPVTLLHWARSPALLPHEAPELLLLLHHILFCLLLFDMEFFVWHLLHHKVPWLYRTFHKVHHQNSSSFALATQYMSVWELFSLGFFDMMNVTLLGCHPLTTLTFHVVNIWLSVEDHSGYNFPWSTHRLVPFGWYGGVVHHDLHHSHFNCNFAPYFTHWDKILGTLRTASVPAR
Protocol: (§1) Measurement of cholesterol 25-hydroxylase activity in whole cells—The transfection medium containing the cationic lipid was aspirated and replaced with 3 ml of Medium B (DMEM containing 10% newborn calf lipoprotein-poor serum, 100 u/ml penicillin, and 100 μg/ml streptomycin sulfate) supplemented with 5 μI of [4-^14C]cholesterol (56.6 mCi/mmol; 0.040 μCi/μl; New England Nuclear, Boston, Mass.). Cells were incubated for a further 60 h at 37° C. in an atmosphere of 8.8% CO2.
(§2) Media from the transfected cells were collected and extracted with 8 ml of chloroform:methanol (2:1, v/v). The organic phase from each sample was taken to dryness under a stream of nitrogen and residues were dissolved in 40 μl aliquots of chloroform:methanol (2:1, v/v) and applied to 20×20 cm prescored LK5DF silica gel TLC plates (Whatman, Hillsboro, Oreg.) with preadsorbent layers. The plates were developed in ethyl acetate:toluene (4:6, v/v), and exposed to a Fuji BAS-MP phosphoimager plate overnight. Phosphoimage analysis was then performed on a Fuji BAS 1000 apparatus.
This EST was used to isolate a near full-length cDNA encoding the human 25-hydroxylase as described in Experimental Procedures. Transfection into 293 cells of the human cDNA cloned in a pCMV6 vector produced abundant 25-hydroxylase enzyme activity.

[2] = molecular target: T2, cholesterol 25-hydroxylase (Mus musculus, UniProt Q9Z0F5); test: 25-hydroxylase activity in CHOP cells transfected with the murine cDNA; format: cell-based; conditions: treatment of transfected CHOP cells
T2 construct: a full-length mouse 25-hydroxylase cDNA fragment from plasmid pCMV-m25; expressed in transfected cells; host or cells: CHOP cells (CHO derivative expressing polyoma middle T antigen)
T2 sequence (Q9Z0F5 1-298): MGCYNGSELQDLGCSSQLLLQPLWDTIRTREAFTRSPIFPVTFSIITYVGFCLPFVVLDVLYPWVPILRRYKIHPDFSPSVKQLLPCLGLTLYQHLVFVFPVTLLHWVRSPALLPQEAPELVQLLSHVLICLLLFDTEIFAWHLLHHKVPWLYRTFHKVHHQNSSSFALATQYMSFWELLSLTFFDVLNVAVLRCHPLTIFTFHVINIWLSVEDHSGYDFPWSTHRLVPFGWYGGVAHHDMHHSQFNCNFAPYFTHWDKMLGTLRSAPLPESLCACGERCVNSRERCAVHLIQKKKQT
Protocol: as §1, §2
Inhibitor Studies—Transfection of CHOP cells was carried out as described above with the following exceptions. […] Cells and/or cells plus medium were harvested at the indicated times, extracted, and the conversion of substrate into [4-^14C]25-hydroxycholesterol product was determined by thin layer chromatography as described above. […]

[3] = tested on: cholesterol 25-hydroxylase; test: Inhibition of cholesterol 25-hydroxylase by sterols in transfected cells; format: cell-based; conditions: for rank order of inhibition of cholesterol 25-hydroxylase: 3 μM [14C]cholesterol, cells treated with 2-hydroxypropyl-β-cyclodextrin; for decrease of enzyme activity: sterol 3 μM, equimolar with [14C]cholesterol (3 μM)
Protocol: as §2
Inhibitor Studies—Transfection of CHOP cells was carried out as described above with the following exceptions. Cells were plated on Day 0 at a density of 150,000 cells/well in 6-well plates containing Medium C. On Day 1, cells were transfected with 2.7 μg of the indicated cholesterol 25-hydroxylase expression plasmid and 0.3 μg of pVA-1, using 12 μl of pfx-8 as transfection lipid. After 4 h, the lipid-DNA mixture was removed and 1.5 ml of Medium D was added. In certain experiments, this medium was aspirated and replaced on Day 2 with 1 ml per well of a 20 mg/ml solution of 2-hydroxypropyl-β-cyclodextrin (Sigma) in DMEM/Ham's F12 (1:1) medium and returned to the incubator. The cyclodextrin containing medium was replaced after 1-1.5 h with 1.5 ml of Medium D, and substrate and inhibitors were then added, each in a volume of 4.5 μl of ethanol. The concentration of [4-^14C]cholesterol substrate (specific activity=26.8 mCi/mmol) was 3 μM. Inhibitors were added to final concentrations of 3, 10 or 30 μM. Cells and/or cells plus medium were harvested at the indicated times, extracted, and the conversion of substrate into [4-^14C]25-hydroxycholesterol product was determined by thin layer chromatography as described above. The inhibitors used were cholesterol(5-cholesten-3β-ol), cholestanol (5α-cholestan-3β-ol), epicholesterol (5-cholesten-3α-ol), coprostanol(5β-cholestan-3β-ol), desmosterol(5,24-cholestadien-3β-ol), β-sitosterol(5-cholesten-24β-ethyl-3β-ol ), 25-hydroxycholesterol(cholest-5-ene-3β,25-diol), and 27-nor-25-oxocholesterol(27-nor-25-oxo-5-cholesten-3β-ol). All steroids were purchased from Steraloids Inc. (Wilton, N.H.), except cholesterol, which was from Sigma (St. Louis, Mo.).
We next tested the ability of different sterols to inhibit cholesterol 25-hydroxylase. In these experiments, 293 cells were transfected with a 25-hydroxylase cDNA, treated with 2-hydroxypropyl-β-cyclodextrin to remove endogenous cholesterol, and then incubated with 3 μM [^14C]cholesterol and the indicated concentrations of unlabeled inhibitor sterol. The rank order of inhibition for the […] sterols tested was desmosterol>cholestanol>25-hydroxycholesterol>epicholesterol>sitosterol>>coprostanol=25-oxo-27-nor-cholesterol. […] In the case of desmosterol (5,24-cholestadien-3β-ol), which can not be 25-hydroxylated due to the Δ^24 bond, this sterol appears to act as a true inhibitor.

[4] = tested on: gene transcription; conditions: compared with 24- and 27-hydroxycholesterol, in vitro; cited from earlier work

Compound	rank order of inhibition of cholesterol 25-hydroxylase [3]	other results
2-hydroxypropyl-β-cyclodextrin	–	stimulation of 25-hydroxylase activity [1]: approximately five-fold; stimulation of 25-hydroxylase activity [2]: approximately 10 fold
C[C@H](CCCC(C)(C)O)[C@H]1CC[C@H]2[C@@H]3CC=C4C[C@@H](O)CC[C@]4(C)[C@H]3CC[C@]12C [25-hydroxycholesterol, cholest-5-ene-3β,25-diol]	desmosterol>cholestanol>25-hydroxycholesterol>epicholesterol>sitosterol>>coprostanol=25-oxo-27-nor-cholesterol	potency as regulator of gene transcription among natural oxysterols [4]: most potent regulator of gene transcription
CC(=O)CCC[C@@H](C)[C@H]1CC[C@H]2[C@@H]3CC=C4C[C@@H](O)CC[C@]4(C)[C@H]3CC[C@]12C [25-oxo-27-nor-cholesterol, 27-nor-25-oxo-5-cholesten-3β-ol]	desmosterol>cholestanol>25-hydroxycholesterol>epicholesterol>sitosterol>>coprostanol=25-oxo-27-nor-cholesterol	–
CC(C)CCC[C@@H](C)[C@H]1CC[C@H]2[C@@H]3CC[C@H]4C[C@@H](O)CC[C@]4(C)[C@H]3CC[C@]12C [cholestanol, 5α-cholestan-3β-ol]	desmosterol>cholestanol>25-hydroxycholesterol>epicholesterol>sitosterol>>coprostanol=25-oxo-27-nor-cholesterol	–
CC(C)CCC[C@@H](C)[C@H]1CC[C@H]2[C@@H]3CC[C@@H]4C[C@@H](O)CC[C@]4(C)[C@H]3CC[C@]12C [coprostanol, 5β-cholestan-3β-ol]	desmosterol>cholestanol>25-hydroxycholesterol>epicholesterol>sitosterol>>coprostanol=25-oxo-27-nor-cholesterol	decrease of enzyme activity [3]: did not inhibit the enzyme
CC(C)=CCC[C@@H](C)[C@H]1CC[C@H]2[C@@H]3CC=C4C[C@@H](O)CC[C@]4(C)[C@H]3CC[C@]12C [desmosterol, 5,24-cholestadien-3β-ol]	desmosterol>cholestanol>25-hydroxycholesterol>epicholesterol>sitosterol>>coprostanol=25-oxo-27-nor-cholesterol	decrease of enzyme activity [3]: 30%
CC(C)CCC[C@@H](C)[C@H]1CC[C@H]2[C@@H]3CC=C4C[C@H](O)CC[C@]4(C)[C@H]3CC[C@]12C [epicholesterol, 5-cholesten-3α-ol]	desmosterol>cholestanol>25-hydroxycholesterol>epicholesterol>sitosterol>>coprostanol=25-oxo-27-nor-cholesterol	–
CC[C@H](CC[C@@H](C)[C@H]1CC[C@H]2[C@@H]3CC=C4C[C@@H](O)CC[C@]4(C)[C@H]3CC[C@]12C)C(C)C [sitosterol, 5-cholesten-24β-ethyl-3β-ol]	desmosterol>cholestanol>25-hydroxycholesterol>epicholesterol>sitosterol>>coprostanol=25-oxo-27-nor-cholesterol	–

— patent US6562609B1, “Cholesterol 25-hydroxylase” (Board of Regents, The University of Texas System, priority 1998, dated 2003)
